Source: the NIST ThermoML archive (doi:10.1021/je500395f)

Conditions: Fluid (supercritical or subcritical phases), Coaxial cylinder method

CCC [propane]
Conditions	thermal conductivity [W/m/K]
373.2 K, 4574 kPa	0.0745
373.2 K, 4590 kPa	0.0724
373.2 K, 4605 kPa	0.07168
373.2 K, 4610 kPa	0.07119
373.2 K, 4640 kPa	0.06975
373.2 K, 4660 kPa	0.06887
373.2 K, 4680 kPa	0.06797
373.2 K, 4740 kPa	0.06707
373.2 K, 4900 kPa	0.06613
373.2 K, 5100 kPa	0.06615
373.2 K, 5540 kPa	0.06698
373.2 K, 6300 kPa	0.06878
373.2 K, 6700 kPa	0.06932
373.2 K, 7400 kPa	0.07086
373.2 K, 7780 kPa	0.07152
373.2 K, 8900 kPa	0.0735
373.2 K, 10500 kPa	0.0764
373.2 K, 11900 kPa	0.07818
374.28 K, 2900 kPa	0.03164
374.28 K, 3087 kPa	0.03271
374.28 K, 3424 kPa	0.03453
374.28 K, 3945 kPa	0.03887
374.28 K, 3975 kPa	0.03918
374.28 K, 4080 kPa	0.0412
374.28 K, 4200 kPa	0.04376
374.28 K, 4280 kPa	0.04558
374.28 K, 4320 kPa	0.04719
374.28 K, 4380 kPa	0.04961
374.28 K, 4425 kPa	0.05238
374.28 K, 4440 kPa	0.05378
374.28 K, 4450 kPa	0.05483
374.28 K, 4460 kPa	0.05626
374.28 K, 4475 kPa	0.05823
374.28 K, 4485 kPa	0.0596
374.28 K, 4510 kPa	0.06324
374.28 K, 4515 kPa	0.06424
374.28 K, 4518 kPa	0.06502
374.28 K, 4520 kPa	0.06551
374.28 K, 4535 kPa	0.06874
374.28 K, 4545 kPa	0.07123
374.28 K, 4550 kPa	0.07267
374.28 K, 4560 kPa	0.07525
374.28 K, 4565 kPa	0.07664
374.28 K, 4570 kPa	0.07786
374.28 K, 4575 kPa	0.07875
374.28 K, 4580 kPa	0.07954
374.28 K, 4585 kPa	0.08016
374.28 K, 4590 kPa	0.08076
374.28 K, 4595 kPa	0.08112
374.28 K, 4600 kPa	0.08148
374.28 K, 4605 kPa	0.0816
374.28 K, 4610 kPa	0.08117
374.28 K, 4615 kPa	0.08036
374.28 K, 4620 kPa	0.07961
374.28 K, 4625 kPa	0.07854
374.28 K, 4630 kPa	0.07755
374.28 K, 4640 kPa	0.07599
374.28 K, 4650 kPa	0.07477
374.28 K, 4670 kPa	0.07334
374.28 K, 4685 kPa	0.0724
374.28 K, 4710 kPa	0.07096
374.28 K, 4720 kPa	0.07026
374.28 K, 4740 kPa	0.06979
374.28 K, 4760 kPa	0.06909
374.28 K, 4780 kPa	0.06868
374.28 K, 4820 kPa	0.06778
374.28 K, 4900 kPa	0.06693
374.28 K, 5000 kPa	0.06603
374.28 K, 5200 kPa	0.06584
374.28 K, 5500 kPa	0.06645
374.28 K, 5798 kPa	0.06707
374.28 K, 6323 kPa	0.06829
374.28 K, 6760 kPa	0.06867
375.1 K, 3780 kPa	0.03695
375.1 K, 3790 kPa	0.03732
375.1 K, 3794 kPa	0.03755
375.1 K, 4210 kPa	0.04276
375.1 K, 4300 kPa	0.04526
375.1 K, 4315 kPa	0.04587
375.1 K, 4350 kPa	0.04739
375.1 K, 4400 kPa	0.04912
375.1 K, 4450 kPa	0.05149
375.1 K, 4510 kPa	0.05552
375.1 K, 4520 kPa	0.05654
375.1 K, 4525 kPa	0.0572
375.1 K, 4535 kPa	0.05845
375.1 K, 4545 kPa	0.05974
375.1 K, 4550 kPa	0.06052
375.1 K, 4555 kPa	0.06115
375.1 K, 4560 kPa	0.06195
375.1 K, 4565 kPa	0.06257
375.1 K, 4570 kPa	0.06325
375.1 K, 4575 kPa	0.06422
375.1 K, 4580 kPa	0.06509
375.1 K, 4585 kPa	0.06611
375.1 K, 4590 kPa	0.06706
375.1 K, 4595 kPa	0.06795
375.1 K, 4600 kPa	0.06877
375.1 K, 4605 kPa	0.06965
375.1 K, 4610 kPa	0.07049
375.1 K, 4620 kPa	0.07215
375.1 K, 4625 kPa	0.07291
375.1 K, 4630 kPa	0.07371
375.1 K, 4635 kPa	0.07453
375.1 K, 4640 kPa	0.07507
375.1 K, 4645 kPa	0.07542
375.1 K, 4650 kPa	0.07583
375.1 K, 4655 kPa	0.07611
375.1 K, 4660 kPa	0.07639
375.1 K, 4665 kPa	0.07653
375.1 K, 4670 kPa	0.07625
375.1 K, 4675 kPa	0.07597
375.1 K, 4680 kPa	0.07569
375.1 K, 4685 kPa	0.07544
375.1 K, 4695 kPa	0.07466
375.1 K, 4700 kPa	0.07412
375.1 K, 4710 kPa	0.07346
375.1 K, 4720 kPa	0.07261
375.1 K, 4740 kPa	0.07111
375.1 K, 4750 kPa	0.07062
375.1 K, 4770 kPa	0.06965
375.1 K, 4790 kPa	0.06852
375.1 K, 4800 kPa	0.06807
375.1 K, 4850 kPa	0.06676
375.1 K, 4890 kPa	0.06599
375.1 K, 4920 kPa	0.06554
375.1 K, 4950 kPa	0.06533
375.1 K, 5040 kPa	0.06533
375.1 K, 5140 kPa	0.0653
375.1 K, 5160 kPa	0.06529
375.1 K, 5226 kPa	0.06525
375.1 K, 5322 kPa	0.06576
375.1 K, 5580 kPa	0.06644
375.1 K, 5830 kPa	0.06691
375.1 K, 6480 kPa	0.06842
375.1 K, 6540 kPa	0.06846
375.1 K, 7140 kPa	0.06958
375.1 K, 8020 kPa	0.07114
375.1 K, 8950 kPa	0.07271
375.1 K, 9500 kPa	0.07355
375.1 K, 9700 kPa	0.0739
375.1 K, 10360 kPa	0.075
375.9 K, 3110 kPa	0.03373
375.9 K, 3134 kPa	0.0338
375.9 K, 3250 kPa	0.03412
375.9 K, 3300 kPa	0.03433
375.9 K, 3550 kPa	0.03563
375.9 K, 3600 kPa	0.03595
375.9 K, 3800 kPa	0.03747
375.9 K, 4000 kPa	0.03934
375.9 K, 4050 kPa	0.03986
375.9 K, 4125 kPa	0.04091
375.9 K, 4250 kPa	0.04345
375.9 K, 4350 kPa	0.04589
375.9 K, 4400 kPa	0.04729
375.9 K, 4450 kPa	0.04877
375.9 K, 4510 kPa	0.05175
375.9 K, 4540 kPa	0.0535
375.9 K, 4560 kPa	0.05503
375.9 K, 4570 kPa	0.05607
375.9 K, 4580 kPa	0.05714
375.9 K, 4590 kPa	0.05826
375.9 K, 4600 kPa	0.05949
375.9 K, 4620 kPa	0.06128
375.9 K, 4630 kPa	0.06278
375.9 K, 4640 kPa	0.06448
375.9 K, 4650 kPa	0.06572
375.9 K, 4660 kPa	0.06701
375.9 K, 4670 kPa	0.06835
375.9 K, 4680 kPa	0.06967
375.9 K, 4690 kPa	0.07058
375.9 K, 4700 kPa	0.07156
375.9 K, 4720 kPa	0.07283
375.9 K, 4740 kPa	0.07257
375.9 K, 4760 kPa	0.07206
375.9 K, 4780 kPa	0.07106
375.9 K, 4800 kPa	0.0705
375.9 K, 4820 kPa	0.06995
375.9 K, 4840 kPa	0.06936
375.9 K, 4880 kPa	0.06835
375.9 K, 4950 kPa	0.06708
375.9 K, 5050 kPa	0.06621
375.9 K, 5100 kPa	0.0662
375.9 K, 5200 kPa	0.06603
375.9 K, 5250 kPa	0.06588
375.9 K, 5500 kPa	0.06634
375.9 K, 5550 kPa	0.06631
375.9 K, 5700 kPa	0.06671
375.9 K, 5820 kPa	0.06682
375.9 K, 5900 kPa	0.06696
375.9 K, 6000 kPa	0.06714
375.9 K, 6200 kPa	0.06746
375.9 K, 6800 kPa	0.06884
375.9 K, 7200 kPa	0.0696
375.9 K, 7800 kPa	0.07056
375.9 K, 8500 kPa	0.072
375.9 K, 9000 kPa	0.07288
375.9 K, 9190 kPa	0.07314
375.9 K, 9806 kPa	0.07405
375.9 K, 10000 kPa	0.07439
375.9 K, 11000 kPa	0.07591
375.9 K, 11028 kPa	0.07597
375.9 K, 11500 kPa	0.0765
375.9 K, 12000 kPa	0.07724
375.9 K, 13000 kPa	0.07845
381 K, 3253 kPa	0.03426
381 K, 3260 kPa	0.03429
381 K, 3320 kPa	0.03451
381 K, 3428 kPa	0.03498
381 K, 3580 kPa	0.03558
381 K, 3820 kPa	0.03665
381 K, 3880 kPa	0.03705
381 K, 4040 kPa	0.03825
381 K, 4100 kPa	0.0389
381 K, 4220 kPa	0.04027
381 K, 4520 kPa	0.04459
381 K, 4560 kPa	0.04539
381 K, 4600 kPa	0.04618
381 K, 4660 kPa	0.04756
381 K, 4740 kPa	0.04988
381 K, 4780 kPa	0.05126
381 K, 4800 kPa	0.05187
381 K, 4860 kPa	0.05418
381 K, 4880 kPa	0.05506
381 K, 4900 kPa	0.05594
381 K, 4920 kPa	0.05685
381 K, 4960 kPa	0.05866
381 K, 5000 kPa	0.06046
381 K, 5020 kPa	0.06124
381 K, 5040 kPa	0.06198
381 K, 5060 kPa	0.06268
381 K, 5100 kPa	0.06374
381 K, 5150 kPa	0.06448
381 K, 5200 kPa	0.06448
381 K, 5250 kPa	0.06475
381 K, 5300 kPa	0.06444
381 K, 5350 kPa	0.06439
381 K, 5390 kPa	0.06427
381 K, 5450 kPa	0.06435
381 K, 5550 kPa	0.06436
381 K, 5700 kPa	0.06435
381 K, 5900 kPa	0.06423
381 K, 6200 kPa	0.06503
381 K, 6500 kPa	0.06554
381 K, 6900 kPa	0.0664
381 K, 7162 kPa	0.06699
381 K, 7300 kPa	0.06714
381 K, 7583 kPa	0.06767
381 K, 9036 kPa	0.07035
381 K, 10110 kPa	0.07235
381 K, 11000 kPa	0.07371
381 K, 12000 kPa	0.07531
381 K, 14750 kPa	0.07855
